In patent US20060029668A1, “Sustained release L-arginine formulations and methods of manufacture and use” (priority 2002, published 2006):

Key:
[1] = system: infarct volume; assay: Dose optimization of combination of simvastatin and L-arginine, infarct volume in mice; format: in vivo; conditions: mice injected with varying levels of simvastatin and L-arginine; predicted by statistical analysis
[2] = system: endothelium-dependent vasodilation; assay: Endothelium-dependent vasodilation by brachial artery ultrasound in subjects with elevated ADMA; format: in vivo, human; conditions: subjects in whom eNOS is blocked by elevated ADMA levels
[3] = system: eNOS; assay: eNOS function in cultured human aortic endothelial cells (conversion of labeled L-arginine to L-citrulline); format: cell-based; conditions: HAEC incubated with 1.0 or 0.3 μM simvastatin for 24 hours; relative to untreated cells
Procedure: Human aortic endothelial cells (HAEC-c) (BioWhittaker, Walkersville, Md.) were cultured according to the following procedure. Endothelial cells in EBM-2/EGM-2 media (BioWhittaker) were grown to about 80% to about 90% confluence. Each flask of cells was washed with 5 ml media followed by the addition of 15 ml media to each cell. Cells were detached with a cell scraper and transferred to a 50 ml conical tube. Cells were pelleted by centrifugation at 800 RMP for 8 min. The supernatant was discarded and the pellet was washed with cold 1× PBS.
The cells were homogenized as follows. The pellet was loosened and 400 μl of 10× homogenization buffer (250 mM Tris at pH 7.4, 10 mM EDTA and 10 mM EGTA) was added. The sample was homogenized using a 27 G needle about 10 times. The homogenate was transferred to a 1.5 ml epindorph tube. The pellet was subsequently resuspended in 30 to 45 μl of 1× homogenization buffer. […]
Following incubation, about 400 μl of stop equilibration buffer (50 mM NaAcetate at pH 5.5) was added to each sample and control. […] Results are calculated, in part, by subtracting background (buffer control) from each sample. The sample values are expressed as counts per minute or as a percent of untreated cells.
Relative eNOS function was measured by the conversion of labeled-L-arginine to L-citrulline and expressed as a percent of citrulline produced by the non-treated cells. […]

SMILES | optimal range of the combination [1] | effect on endothelial function [2] | level of eNOS function [3]
N=C(N)NCCC[C@H](N)C(=O)O [L-arginine] | 20 to 25 mg/kg | – | –
CCC(C)(C)C(=O)O[C@H]1C[C@@H](C)C=C2C=C[C@H](C)[C@H](CC[C@@H]3C[C@@H](O)CC(=O)O3)[C@H]21 [simvastatin w/o L-arginine SR, simvastatin] | – | does not enhance | increases
